Experimental data reported in US6610665B1 (Smithkline Beecham Corporation, priority 1998, dated 2003).
Where a name gives a salt, the structure may show the parent alone.

Key:
Format in all cases: cell-based
Conditions in all cases: ratio to NECA
[1] = biological target: T1, adenosine 2a receptor (Homo sapiens, UniProt P29274); assay: Agonist activity, CHO cells transfected with human adenosine receptor and CRE-SPAP reporter; basal cAMP (A2a)
T1 construct: expressed in transfected cells; host or cells: CHO cells
Method: (§1) (1) Agonist activity against adenosine 2a, adenosine 1 and adenosine 3 receptor subtypes.
(§2) Agonist selectivity of compounds against other human adenosine receptors is determined using Chinese hamster ovary (CHO) cells transfected with the gene for the relevant human adenosine receptor following a method based on that of Castanon and Spevak, 1994. The CHO cells are also transfected with cyclic AMP response elements promoting the gene for secreted placental alkaline phosphatase (SPAP) (Wood, 1995). The effect of test compounds may be determined by their effects on basal levels of CAMP (A2a) or on forskolin-enhanced cAMP (A1 and A3) as reflected by changes in levels of SPAP. EC50 values for compounds may then be determined as a ratio to that of the non-selective agonist N-ethyl carboxamide adenosine (NECA).

[2] = biological target: T2, adenosine 3 receptor (Homo sapiens, UniProt P0DMS8); assay: Agonist activity, CHO cells transfected with human adenosine receptor and CRE-SPAP reporter; forskolin-enhanced cAMP (A3)
T2 construct: expressed in transfected cells; host or cells: CHO cells
T2 sequence (P0DMS8 1-318): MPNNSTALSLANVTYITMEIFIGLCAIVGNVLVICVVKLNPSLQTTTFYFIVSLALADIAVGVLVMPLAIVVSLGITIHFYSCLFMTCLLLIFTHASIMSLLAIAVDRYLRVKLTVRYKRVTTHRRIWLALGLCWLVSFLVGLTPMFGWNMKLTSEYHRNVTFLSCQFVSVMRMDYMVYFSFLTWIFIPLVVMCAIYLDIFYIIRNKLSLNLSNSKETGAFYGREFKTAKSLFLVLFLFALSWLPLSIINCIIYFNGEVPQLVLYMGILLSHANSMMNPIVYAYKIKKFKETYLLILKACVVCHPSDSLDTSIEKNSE
Method: as §1, §2

[3] = biological target: T3, adenosine 1 receptor (Homo sapiens, UniProt P30542); assay: Agonist activity, CHO cells transfected with human adenosine receptor and CRE-SPAP reporter; forskolin-enhanced cAMP (A1)
T3 construct: expressed in transfected cells; host or cells: CHO cells
T3 sequence (P30542 1-326): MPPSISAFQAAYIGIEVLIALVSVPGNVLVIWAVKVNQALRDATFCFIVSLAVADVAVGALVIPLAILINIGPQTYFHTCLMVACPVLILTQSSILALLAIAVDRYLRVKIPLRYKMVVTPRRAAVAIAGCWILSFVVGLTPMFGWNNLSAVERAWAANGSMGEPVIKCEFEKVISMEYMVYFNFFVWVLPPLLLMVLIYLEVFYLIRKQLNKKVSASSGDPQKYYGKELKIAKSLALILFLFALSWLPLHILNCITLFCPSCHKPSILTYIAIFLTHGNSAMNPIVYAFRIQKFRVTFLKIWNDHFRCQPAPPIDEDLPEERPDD
Method: as §1, §2

[4] = * data are minimum values since preparation was found, after testing, to contain an inactive impurity

T1 sequence (P29274 whole entry): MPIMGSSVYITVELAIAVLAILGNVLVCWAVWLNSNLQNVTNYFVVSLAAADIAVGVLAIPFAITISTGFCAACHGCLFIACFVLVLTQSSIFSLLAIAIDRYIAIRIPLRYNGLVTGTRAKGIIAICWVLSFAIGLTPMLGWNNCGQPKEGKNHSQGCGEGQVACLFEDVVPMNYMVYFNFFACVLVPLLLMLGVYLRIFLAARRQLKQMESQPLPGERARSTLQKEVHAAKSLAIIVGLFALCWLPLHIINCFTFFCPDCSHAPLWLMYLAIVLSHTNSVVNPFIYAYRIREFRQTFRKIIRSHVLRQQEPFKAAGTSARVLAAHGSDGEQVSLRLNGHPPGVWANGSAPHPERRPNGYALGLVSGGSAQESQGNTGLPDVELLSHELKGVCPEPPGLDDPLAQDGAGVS

CCc1noc([C@H]2O[C@@H](n3cnc4c(NCC(c5ccccc5)c5ccccc5)nc(NCCc5ccc(OC)c(OC)c5)nc43)[C@H](O)[C@@H]2O)n1.O=CO [Example 42, (2R,3R,4S,5S)-2-{2-(2-[3,4-Dimethoxy-phenyl]-ethylamino)-6-(2,2-diphenyl-ethylamino)-purin-9-yl}-5-(3-ethyl-[1,2,4]oxadiazol-5-yl)-tetrahydro-furan-3,4-diol formate]
A2a, EC50 as a ratio of that of NECA ([1]; CHO cells, SPAP readout): 32.77 | A3, EC50 as a ratio of that of NECA ([2]; CHO cells, SPAP readout): >130 | A1, EC50 as a ratio of that of NECA ([3]; CHO cells, SPAP readout): >6064

CCc1noc([C@H]2O[C@@H](n3cnc4c(NC(CC)CC)nc(NCCN5CCCCC5)nc43)[C@H](O)[C@@H]2O)n1.O=CO [Example 20, (2S,3S,4R,5R)-2-(3-Ethyl-[1,2,4]oxadiazol-5-yl)-5-[6-(1-ethyl-propylamino)-2-(2-piperidin-1-yl-ethylamino)-purin-9-yl]-tetrahydro-furan-3,4-diol formate]
A2a, EC50 as a ratio of that of NECA [1, 4]: 17.08 | A3, EC50 as a ratio of that of NECA [2, 4]: >694 | A1, EC50 as a ratio of that of NECA [3, 4]: >=1853

CCC(CC)Nc1nc(NC(CO)C(C)C)nc2c1ncn2C1OC(c2nc(C)no2)C(O)C1O [Example 28, (2R,3R,4S,5S)-2-[6-(1-Ethyl-propylamino)-2-(1S-hydroxymethyl-2-methyl-propylamino)-purin-9-yl]-5-(3-methyl-[1,2,4]oxadiazol-5-yl)-tetrahydro-furan-3,4-diol formate]
A2a, EC50 as a ratio of that of NECA [1, 4]: 5.49 | A3, EC50 as a ratio of that of NECA [2, 4]: >284 | A1, EC50 as a ratio of that of NECA [3, 4]: >5263

CCc1noc(C2OC(n3cnc4c(NCCC5CCCCC5)nc(NCCc5cn(C)cn5)nc43)C(O)C2O)n1.O=CO.O=CO [Example 47, (2R,3R,4S,5S)-2-{6-(2-cyclohexylethylamino)-2-[2-(1-methyl-1H-imidazol4-yl)ethylamino]-purin-9-yl}-5-(3-ethyl-[1,2,4]oxadiazol-5-yl)-tetrahydro-furan-3,4-diol diformate]
A2a, EC50 as a ratio of that of NECA ([1]; CHO cells, SPAP readout): 6.93 | A3, EC50 as a ratio of that of NECA ([2]; CHO cells, SPAP readout): >165 | A1, EC50 as a ratio of that of NECA ([3]; CHO cells, SPAP readout): 4993.28

CCc1noc([C@H]2O[C@@H](n3cnc4c(NCC(c5ccccc5)c5ccccc5)nc(NCCc5cn(C)cn5)nc43)[C@H](O)[C@@H]2O)n1.O=C(O)C(F)F.O=C(O)C(F)F [Example 2]
A2a, EC50 as a ratio of that of NECA ([1]; CHO cells, SPAP readout): 0.64 | A3, EC50 as a ratio of that of NECA ([2]; CHO cells, SPAP readout): >197 | A1, EC50 as a ratio of that of NECA ([3]; CHO cells, SPAP readout): 1823

CCc1noc([C@H]2O[C@@H](n3cnc4c(NC(CC)CC)nc(N[C@H]5CCC[C@@H]5O)nc43)[C@H](O)[C@@H]2O)n1.O=CO [Example 25, (2S,3S,4R,5R)-2-(3-Ethyl-[1,2,4]oxadiazol-5-yl)-5-[6-(1-ethyl-propylamino)-2-(2S-hydroxy-cyclopent-(S)-ylamino)-purin-9-yl]-tetrahydro-furan-3,4-diol formate]
A2a, EC50 as a ratio of that of NECA ([1]; CHO cells, SPAP readout): 19.35 | A3, EC50 as a ratio of that of NECA ([2]; CHO cells, SPAP readout): >163 | A1, EC50 as a ratio of that of NECA ([3]; CHO cells, SPAP readout): 515.35

CCC(CC)Nc1nc(NCCN2CCCCC2)nc2c1ncn2C1OC(c2nc(C3CC3)no2)C(O)C1O [Example 35, (2S,3S,4R,5R)-2-(3-Cyclopropyl-[1,2,4]oxadiazol-5-yl)-5-[6-(1-ethyl-propylamino)-2-(2-piperidin-1-yl-ethylamino)-purin-9-yl]-tetrahydro-furan-3,4-diolldiformate]
A2a, EC50 as a ratio of that of NECA ([1]; CHO cells, SPAP readout): 7.89 | A3, EC50 as a ratio of that of NECA ([2]; CHO cells, SPAP readout): >194 | A1, EC50 as a ratio of that of NECA ([3]; CHO cells, SPAP readout): 912.1

CCc1noc([C@H]2O[C@@H](n3cnc4c(NCC(c5ccccc5)c5ccccc5)nc(NC5CC6CCC5C6)nc43)[C@H](O)[C@@H]2O)n1.O=CO (stereo partly drawn) [Example 41, (2R,3R,4S,5S)-2-{2-(Bicyclo[2.2.1]hept-2-ylamino)-6-(2,2-diphenyl-ethylamino)-purin-9-yl}-5-(3-ethyl-[1,2,4]oxadiazol-5-yl)-tetrahydro-furan-3,4-diol formate]
A2a, EC50 as a ratio of that of NECA ([1]; CHO cells, SPAP readout): 23.93 | A3, EC50 as a ratio of that of NECA ([2]; CHO cells, SPAP readout): >130 | A1, EC50 as a ratio of that of NECA ([3]; CHO cells, SPAP readout): 2033.2

CCc1noc([C@H]2O[C@@H](n3cnc4c(NCCc5ccccc5)nc(NCCc5cn(C)cn5)nc43)[C@H](O)[C@@H]2O)n1.O=CO.O=CO [Example 46]
A2a, EC50 as a ratio of that of NECA ([1]; CHO cells, SPAP readout): 0.90 | A3, EC50 as a ratio of that of NECA ([2]; CHO cells, SPAP readout): >165 | A1, EC50 as a ratio of that of NECA ([3]; CHO cells, SPAP readout): 3560.13

CCC(CC)Nc1nc(NCCN2CCOCC2)nc2c1ncn2C1OC(c2nc(C3CC3)no2)C(O)C1O.O=CO.O=CO (stereo not drawn) [Example 36]
A2a, EC50 as a ratio of that of NECA ([1]; CHO cells, SPAP readout): 20.13 | A3, EC50 as a ratio of that of NECA ([2]; CHO cells, SPAP readout): >194 | A1, EC50 as a ratio of that of NECA ([3]; CHO cells, SPAP readout): >9364

CCc1noc([C@H]2O[C@@H](n3cnc4c(NCC(c5ccccc5)c5ccccc5)nc(NCCNc5ccccn5)nc43)[C@H](O)[C@@H]2O)n1.O=CO.O=CO [Example 40]
A2a, EC50 as a ratio of that of NECA ([1]; CHO cells, SPAP readout): 4.89 | A3, EC50 as a ratio of that of NECA ([2]; CHO cells, SPAP readout): >130 | A1, EC50 as a ratio of that of NECA ([3]; CHO cells, SPAP readout): >=3311.7

CCc1noc([C@H]2O[C@@H](n3cnc4c(NCC(c5ccccc5)c5ccccc5)nc(NCCN5CCCCC5)nc43)[C@H](O)[C@@H]2O)n1.O=CO [Example 32, (2R,3R,4S,5S)-2-[6-(2,2-Diphenyl-ethylamino)-2-(2-piperidin-1-yl-ethylamino)-purin-9-yl]-5-(3-ethyl-[1,2,4]oxadiazol-5-yl)-tetrahydro-furan-3,4-diol formate]
A2a, EC50 as a ratio of that of NECA ([1]; CHO cells, SPAP readout): 31.4 | A3, EC50 as a ratio of that of NECA ([2]; CHO cells, SPAP readout): >258 | A1, EC50 as a ratio of that of NECA ([3]; CHO cells, SPAP readout): 7521

Cc1noc(C2OC(n3cnc4c(NCC(c5ccccc5)c5ccccc5)nc(NCCc5c[nH]cn5)nc43)C(O)C2O)n1 [Example 34, (2R,3R,4S,5S)-2-{6-(2,2-Diphenyl-ethylamino)-2-[2-(1H-imidazol-4-yl)-ethylamino]-purin-9-yl}-5-(3-methyl-[1,2,4oxadiazol-5-yl)-tetrahydro-furan-3,4-diol formate]
A2a, EC50 as a ratio of that of NECA [1, 4]: 8.31 | A3, EC50 as a ratio of that of NECA [2, 4]: 231.1 | A1, EC50 as a ratio of that of NECA [3, 4]: 3270.8

CCC(CC)Nc1nc(NCCN2CCCCC2)nc2c1ncn2[C@@H]1O[C@H](c2nc(C)no2)[C@@H](O)[C@H]1O.O=CO [Example 18, (2R,3R,4S,5S)-2-[6-(1-Ethyl-propylamino)-2-(2-piperidin-1-yl-ethylamino)-purin-9-yl]-5-(3-methyl-[1,2,4]oxadiazol-5-yl)-tetrahydro-furan-3,4-diol formate]
A2a, EC50 as a ratio of that of NECA [1, 4]: 8.16 | A3, EC50 as a ratio of that of NECA [2, 4]: >314 | A1, EC50 as a ratio of that of NECA [3, 4]: >6244

Cc1noc([C@H]2O[C@@H](n3cnc4c(NCC(c5ccccc5)c5ccccc5)nc(NCCc5cn(C)cn5)nc43)[C@H](O)[C@@H]2O)n1.O=C(O)C(F)(F)F.O=C(O)C(F)(F)F [Example 1]
A2a, EC50 as a ratio of that of NECA ([1]; CHO cells, SPAP readout): 1.19 | A3, EC50 as a ratio of that of NECA ([2]; CHO cells, SPAP readout): >197 | A1, EC50 as a ratio of that of NECA ([3]; CHO cells, SPAP readout): 1306

CCC(CC)Nc1nc(NCCc2ccccn2)nc2c1ncn2[C@@H]1O[C@H](c2nc(C3CC3)no2)[C@@H](O)[C@H]1O.O=CO.O=CO [Example 37]
A2a, EC50 as a ratio of that of NECA ([1]; CHO cells, SPAP readout): 49.45 | A3, EC50 as a ratio of that of NECA ([2]; CHO cells, SPAP readout): >87 | A1, EC50 as a ratio of that of NECA ([3]; CHO cells, SPAP readout): >10402

CCC(CC)Nc1nc(NC(CO)Cc2ccccc2)nc2c1ncn2C1OC(c2nc(C)no2)C(O)C1O [Example 17, (2R,3R,4S,5S)-2-[6-(1-Ethyl-propylamino)-2-(1S-hydroxymethyl-2-phenl-ethylamino)-purin-9-yl]-5-(3-methyl-[1,2,4]oxadiazol-5-yl)-tetrahydro-furan-3,4-diol formate]
A2a, EC50 as a ratio of that of NECA [1, 4]: 3.97 | A3, EC50 as a ratio of that of NECA [2, 4]: >362 | A1, EC50 as a ratio of that of NECA [3, 4]: >6244
